How the values were obtained:
Format in all cases: in vivo
[1] = tested on: redroot pigweed (Amaranthus retroflexus); experiment: Test A pre/postemergence
Outline: (§1)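 Visual injury scored 0–100 (0 = no effect, 100 = complete control) against untreated controls after about ten days in the greenhouse. Compounds, formulated in non-phytotoxic solvent plus surfactant, were applied preemergence as a directed soil spray and postemergence at the 1- to 2-leaf stage (2–10 cm).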

[2] = tested on: velvetleaf (Abutilon theophrasti); experiment: Test A pre/postemergence
Outline: as §1

[3] = tested on: barnyardgrass (Echinochloa crus-galli); experiment: Test A pre/postemergence
Outline: as §1

[4] = tested on: giant foxtail (Setaria faberi); experiment: Test A pre/postemergence
Outline: as §1

[5] = tested on: crabgrass (Digitaria sanguinalis); experiment: Test A pre/postemergence
Outline: as §1

[6] = tested on: morningglory (Ipomoea spp.); experiment: Test A pre/postemergence
Outline: as §1

[7] = tested on: water seeded rice seedlings (Oryza sativa cv. ‘Japonica-M202’); experiment: Test E flooded paddy water application; settings: Flood, 21 days, scale 0 to 100 (0 no effect, 100 complete control)
Description: (§2) Three plastic pots (ca. 16-cm diameter) per rate were partially filled with sterilized Tama silt loam soil comprising a 35:50:15 ratio of sand, silt and clay and 2.6% organic matter. Separate plantings for each of the three pots were as follows. Seeds from the U.S. of ducksalad (Heteranthera limosa), smallflower umbrella sedge (Cyperus difformis) and purple redstem (Ammannia coccinea), were planted into one 16-cm pot for each rate. Seeds from the U.S. of rice flatsedge (Cyperus iria), bearded (brdd.) sprangletop (Leptochloa fusca ssp. fascicularis), one stand of 9 or 10 water seeded rice seedlings (Oryza sativa cv. ‘Japonica-M202’), and one stand of 6 transplanted rice seedlings (Oryza sativa cv. ‘Japonica-M202’) were planted into one 16-cm pot for each rate. Seeds from the U.S. of barnyardgrass (Echinochloa crus-galli), late watergrass (Echinochloa oryzicola), early watergrass (Echinochloa oryzoides) and junglerice (Echinochloa colona) were planted into one 16-cm pot for each rate. Plantings were sequential so that crop and weed species were at the 2.0 to 2.5-leaf stage at time of treatment.
(§3) Potted plants were grown in a greenhouse with day/night temperature settings of 29.5/26.7° C., and supplemental balanced lighting was provided to maintain a 16-hour photoperiod. Test pots were maintained in the greenhouse until test completion.
(§4) At time of treatment, test pots were flooded to 3 cm above the soil surface, treated by application of test compounds directly to the paddy water, and then maintained at that water depth for the duration of the test. Effects of treatments on rice and weeds were visually evaluated by comparison to untreated controls after 21 days. Plant response ratings, summarized in Table E, are based on a scale of 0 to 100 where 0 is no effect and 100 is complete control. A dash (-) response means no test result.

[8] = tested on: late watergrass (Echinochloa oryzicola); experiment: Test E flooded paddy water application; settings: Flood, 21 days, scale 0 to 100 (0 no effect, 100 complete control)
Description: as §2, §3, §4

[9] = tested on: early watergrass (Echinochloa oryzoides); experiment: Test E flooded paddy water application; settings: Flood, 21 days, scale 0 to 100 (0 no effect, 100 complete control)
Description: as §2, §3, §4

[10] = tested on: junglerice (Echinochloa colona); experiment: Test E flooded paddy water application; settings: Flood, 21 days, scale 0 to 100 (0 no effect, 100 complete control)
Description: as §2, §3, §4

[11] = tested on: transplanted rice seedlings (Oryza sativa cv. ‘Japonica-M202’); experiment: Test E flooded paddy water application; settings: Flood, 21 days, scale 0 to 100 (0 no effect, 100 complete control)
Description: as §2, §3, §4

[12] = tested on: purple redstem (Ammannia coccinea); experiment: Test E flooded paddy water application; settings: Flood, 21 days, scale 0 to 100 (0 no effect, 100 complete control)
Description: as §2, §3, §4

[13] = tested on: barnyardgrass (Echinochloa crus-galli); experiment: Test E flooded paddy water application; settings: Flood, 21 days, scale 0 to 100 (0 no effect, 100 complete control)
Description: as §2, §3, §4

[14] = tested on: bearded (brdd.) sprangletop (Leptochloa fusca ssp. fascicularis); experiment: Test E flooded paddy water application; settings: Flood, 21 days, scale 0 to 100 (0 no effect, 100 complete control)
Description: as §2, §3, §4

[15] = tested on: smallflower umbrella sedge (Cyperus difformis); experiment: Test E flooded paddy water application; settings: Flood, 21 days, scale 0 to 100 (0 no effect, 100 complete control)
Description: as §2, §3, §4

[16] = tested on: ducksalad (Heteranthera limosa); experiment: Test E flooded paddy water application; settings: Flood, 21 days, scale 0 to 100 (0 no effect, 100 complete control)
Description: as §2, §3, §4

[17] = tested on: rice flatsedge (Cyperus iria); experiment: Test E flooded paddy water application; settings: Flood, 21 days, scale 0 to 100 (0 no effect, 100 complete control)
Description: as §2, §3, §4

[18] = Postemergence, 125 g ai/ha, 0 to 100 scale (0 no effect, 100 complete control)
[19] = Postemergence, 500 g ai/ha, 0 to 100 scale (0 no effect, 100 complete control)
[20] = Preemergence, 125 g ai/ha, 0 to 100 scale where 0 is no effect and 100 is complete control, approximately ten days
[21] = Preemergence, 500 g ai/ha, 0 to 100 scale where 0 is no effect and 100 is complete control, approximately ten days

For CCOC(=O)c1nc(-c2ccc(C)cc2)nc(N)c1Br [Compound 61], the “Plant response rating, Pigweed” value [1, 18] was 25, the “Plant response rating, Pigweed” value [1, 19] was 50 and the “Plant response rating, Pigweed” value [1, 20] was 0. The “Plant response rating, Pigweed” value [1, 21] was 30, the “Plant response rating, Velvetleaf” value [2, 18] was 70 and the “Plant response rating, Velvetleaf” value [2, 19] was 100. For the same molecule, the “Plant response rating, Velvetleaf” value [2, 20] was 0, the “Plant response rating, Velvetleaf” value [2, 21] was 50 and the “Plant response rating, Barnyardgrass” value [3, 18] was 35. For the same molecule, the “Plant response rating, Barnyardgrass” value [3, 19] was 60, the “Plant response rating, Barnyardgrass” value [3, 20] was 0 and the “Plant response rating, Barnyardgrass” value [3, 21] was 10. For the same molecule, the “Plant response rating, Foxtail, Giant” value [4, 18] was 0, the “Plant response rating, Foxtail, Giant” value [4, 19] was 25 and the “Plant response rating, Foxtail, Giant” value [4, 20] was 0. The “Plant response rating, Foxtail, Giant” value [4, 21] was 10, the “Plant response rating, Crabgrass” value [5, 18] was 0 and the “Plant response rating, Crabgrass” value [5, 19] was 5. For the same molecule, the “Plant response rating, Crabgrass” value [5, 20] was 0, the “Plant response rating, Crabgrass” value [5, 21] was 30 and the “Plant response rating, Morningglory” value [6, 18] was 10. The “Plant response rating, Morningglory” value [6, 19] was 30, the “Plant response rating, Morningglory” value [6, 20] was 0 and the “Plant response rating, Morningglory” value [6, 21] was 15. For the same molecule, the “Rice, Water Seeded plant response rating” value ([7]; 32 g ai/ha) was 0, the “Rice, Water Seeded plant response rating” value ([7]; 64 g ai/ha) was 0 and the “Rice, Water Seeded plant response rating” value ([7]; 125 g ai/ha) was 0. The “Rice, Water Seeded plant response rating” value ([7]; 250 g ai/ha) was 10, the “Rice, Water Seeded plant response rating” value ([7]; 500 g ai/ha) was 35 and the “Watergrass, Late plant response rating” value ([8]; 32 g ai/ha) was 0. For the same molecule, the “Watergrass, Late plant response rating” value ([8]; 64 g ai/ha) was 20, the “Watergrass, Late plant response rating” value ([8]; 125 g ai/ha) was 20 and the “Watergrass, Late plant response rating” value ([8]; 250 g ai/ha) was 20. For the same molecule, the “Watergrass, Late plant response rating” value ([8]; 500 g ai/ha) was 25, the “Watergrass, Early plant response rating” value ([9]; 32 g ai/ha) was 0 and the “Watergrass, Early plant response rating” value ([9]; 64 g ai/ha) was 0. The “Watergrass, Early plant response rating” value ([9]; 125 g ai/ha) was 0, the “Watergrass, Early plant response rating” value ([9]; 250 g ai/ha) was 20 and the “Watergrass, Early plant response rating” value ([9]; 500 g ai/ha) was 25. The “Junglerice plant response rating” value ([10]; 32 g ai/ha) was 0, the “Junglerice plant response rating” value ([10]; 64 g ai/ha) was 20 and the “Junglerice plant response rating” value ([10]; 125 g ai/ha) was 20. The “Junglerice plant response rating” value ([10]; 250 g ai/ha) was 25, the “Junglerice plant response rating” value ([10]; 500 g ai/ha) was 25 and the “Rice, Transplanted plant response rating” value ([11]; 32 g ai/ha) was 0. The “Rice, Transplanted plant response rating” value ([11]; 64 g ai/ha) was 0, the “Rice, Transplanted plant response rating” value ([11]; 125 g ai/ha) was 0 and the “Rice, Transplanted plant response rating” value ([11]; 250 g ai/ha) was 0. The “Rice, Transplanted plant response rating” value ([11]; 500 g ai/ha) was 25, the “Redstem plant response rating” value ([12]; 32 g ai/ha) was 65 and the “Redstem plant response rating” value ([12]; 64 g ai/ha) was 80. The “Redstem plant response rating” value ([12]; 125 g ai/ha) was 80, the “Redstem plant response rating” value ([12]; 250 g ai/ha) was 100 and the “Redstem plant response rating” value ([12]; 500 g ai/ha) was 100. For the same molecule, the “Barnyardgrass plant response rating” value ([13]; 32 g ai/ha) was 0, the “Barnyardgrass plant response rating” value ([13]; 64 g ai/ha) was 0 and the “Barnyardgrass plant response rating” value ([13]; 125 g ai/ha) was 0. The “Barnyardgrass plant response rating” value ([13]; 250 g ai/ha) was 0, the “Barnyardgrass plant response rating” value ([13]; 500 g ai/ha) was 65 and the “Sprangletop, Brdd. plant response rating” value ([14]; 32 g ai/ha) was 35. The “Sprangletop, Brdd. plant response rating” value ([14]; 64 g ai/ha) was 35, the “Sprangletop, Brdd. plant response rating” value ([14]; 125 g ai/ha) was 60 and the “Sprangletop, Brdd. plant response rating” value ([14]; 250 g ai/ha) was 65. For the same molecule, the “Sprangletop, Brdd. plant response rating” value ([14]; 500 g ai/ha) was 65, the “Sedge, Umbrella plant response rating” value ([15]; 32 g ai/ha) was 20 and the “Sedge, Umbrella plant response rating” value ([15]; 64 g ai/ha) was 75. The “Sedge, Umbrella plant response rating” value ([15]; 125 g ai/ha) was 85, the “Sedge, Umbrella plant response rating” value ([15]; 250 g ai/ha) was 95 and the “Sedge, Umbrella plant response rating” value ([15]; 500 g ai/ha) was 100. The “Ducksalad plant response rating” value ([16]; 32 g ai/ha) was 100, the “Ducksalad plant response rating” value ([16]; 64 g ai/ha) was 100 and the “Ducksalad plant response rating” value ([16]; 125 g ai/ha) was 100. The “Ducksalad plant response rating” value ([16]; 250 g ai/ha) was 100, the “Ducksalad plant response rating” value ([16]; 500 g ai/ha) was 100 and the “Flatsedge, Rice plant response rating” value ([17]; 32 g ai/ha) was 0. For the same molecule, the “Flatsedge, Rice plant response rating” value ([17]; 64 g ai/ha) was 0, the “Flatsedge, Rice plant response rating” value ([17]; 125 g ai/ha) was 40 and the “Flatsedge, Rice plant response rating” value ([17]; 250 g ai/ha) was 40. For the same molecule, the “Flatsedge, Rice plant response rating” value ([17]; 500 g ai/ha) was 95.
